Results as given in patent publication US20120214822A1 (ASTRAZENECA AB, priority 2007, published 2012).

Molecular target: human active recombinant p38α-6His tagged (Homo sapiens, UniProt Q16539)
Assay: P38 Alpha Enzyme Assay (AlphaScreen, biotinylated-ATF2 substrate);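 note: 0.5 nM final p38α, reaction started with ATP and run 45 min at 37 °C, phospho-ATF2 read by antibody-based AlphaScreen, background wells quenched with EDTA before ATP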
Type: biochemical
Details: p38 alpha enzyme inhibition; means of replicate determinations; 4 h pre-incubation at 37° C.; SD of assay 0.2-0.3 log units

Chain of human active recombinant p38α-6His tagged (Q16539 whole entry): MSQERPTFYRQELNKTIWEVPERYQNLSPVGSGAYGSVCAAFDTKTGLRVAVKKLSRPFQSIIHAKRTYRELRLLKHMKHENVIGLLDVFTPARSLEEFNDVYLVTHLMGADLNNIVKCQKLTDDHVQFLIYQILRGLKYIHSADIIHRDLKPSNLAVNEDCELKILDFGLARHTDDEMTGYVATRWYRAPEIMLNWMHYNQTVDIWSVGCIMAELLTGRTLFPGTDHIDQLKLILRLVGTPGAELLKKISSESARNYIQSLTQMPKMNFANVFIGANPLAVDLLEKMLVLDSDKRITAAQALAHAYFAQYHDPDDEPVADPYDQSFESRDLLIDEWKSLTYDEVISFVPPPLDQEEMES

SMILES	pIC50	IC50 [nM]
Cc1ccc(C(=O)NC2CC2)cc1-n1ccnc(NCc2ccccc2Cl)c1=O [Example 129, 3-[3-[[(2-Chlorophenyl)methyl]amino]-2-oxo-1(2H)-pyrazinyl]-N-cyclopropyl-4-methyl-benzamide]	7.7	–
Cc1ccc(C(=O)NC2CC2)cc1-n1ccnc(NC2(c3ccccc3OCCNC(C)C)CCC2)c1=O [Example 271, N-Cyclopropyl-4-methyl-3-[3-[[1-[2-[2-[(1-methylethyl)amino]ethoxy]phenyl]cyclobutyl]amino]-2-oxo-1(2H)-pyrazinyl]-benzamide]	9.9	–
Cc1ccc(C(=O)NC2CC2)cc1-n1ccnc(N[C@@H](c2ccccc2)[C@@H](C)CN(C)C(C)(C)C)c1=O [Example 154, N-Cyclopropyl-3-[3-[[(1R,2S)-3-[(1,1-dimethylethyl)methylamino]-2-methyl-1-phenylpropyl]amino]-2-oxo-1(2H)-pyrazinyl]-4-methyl-benzamide]	9	–
Cc1ccccc1CNc1nccn(-c2cc(C(=O)NC3CC3)ccc2C)c1=O [Example 39, N-Cyclopropyl-4-methyl-3-[3-[[(2-methylphenyl)methyl]amino]-2-oxo-1(2H)-pyrazinyl]-benzamide]	7.5	–
Cc1ccc(C(=O)NC2CC2)cc1-n1ccnc(N[C@H](CC(=O)NC2CC2)c2ccccc2)c1=O [Example 89]	7.6	–
Cc1ccc(C(=O)NC2CC2)cc1-n1ccnc(NC2(c3ccccc3OCCN)CC2)c1=O [Example 251, 3-[3-[[1-[2-(2-aminoethoxy)phenyl]cyclopropyl]amino]-2-oxo-1(2H)-pyrazinyl]-N-cyclopropyl-4-methyl-benzamide]	10.1	–
Cc1ccc(C(=O)NC2CC2)cc1-n1ccnc(NC2(c3ccccc3OCCN3CCCN(C)CC3)CC2)c1=O [Example 235, N-Cyclopropyl-3-[3-[[1-[2-[2-(hexahydro-4-methyl-1H-1,4-diazepin-1-yl)ethoxy]phenyl]cyclopropyl]amino]-2-oxo-1(2H)-pyrazinyl]-4-methyl-benzamide]	9.7	–
Cc1ccc(C(=O)NC2CC2)cc1-n1ccnc(NCc2cccc(F)c2)c1=O [Example 22, N-Cyclopropyl-3-[3-[[(3-fluorophenyl)methyl]amino]-2-oxo-1(2H)-pyrazinyl]-4-methyl-benzamide]	7	–
Cc1ccc(C(=O)NC2CC2)cc1-n1ccnc(NC(C)(C)c2ccccc2OC2CCNC2)c1=O (centres unmarked) [Example 216, N-Cyclopropyl-4-methyl-3-[3-[[1-methyl-1-[2-(3-pyrrolidinyloxy)phenyl]ethyl]amino]-2-oxo-1(2H)-pyrazinyl]-benzamide]	9.4	–
Cc1c(F)cc(C(=O)NC2CC2)cc1-n1ccnc(NC2(c3ccccc3OCCNC[C@H](C)O)CC2)c1=O [Example 263, N-Cyclopropyl-3-fluoro-5-[3-[[1-[2-[2-[[(2S)-2-hydroxypropyl]amino]ethoxy]phenyl]cyclopropyl]amino]-2-oxo-1(2H)-pyrazinyl]-4-methyl-benzamide]	10.3	–
Cc1c(F)cc(C(=O)NC2CC2)cc1-n1ccnc(NC2(c3ccccc3OCCNC[C@@H](C)O)CC2)c1=O [Example 265, N-Cyclopropyl-3-fluoro-5-[3-[[1-[2-[2-[[(2R)-2-hydroxypropyl]amino]ethoxy]phenyl]cyclopropyl]amino]-2-oxo-1(2H)-pyrazinyl]-4-methyl-benzamide]	9.7	–
CCNCCOc1ccccc1C(C)(C)Nc1nccn(-c2cc(C(=O)NC3CC3)ccc2Cl)c1=O [Example 333, 4-Chloro-N-cyclopropyl-3-[3-[(1-{2-[2-(ethylamino)ethoxy]phenyl}-1-methylethyl)amino]-2-oxopyrazin-1(2H)-yl]benzamide]	9.5	–
Cc1ccc(C(=O)NC2CC2)cc1-n1ccnc(N[C@@H](c2ccccc2)[C@@H](C)CN2CCCC2(C)C)c1=O [Example 197, N-Cyclopropyl-3-[3-[[(1R,2S)-3-(2,2-dimethyl-1-pyrrolidinyl)-2-methyl-1-phenylpropyl]amino]-2-oxo-1(2H)-pyrazinyl]-4-methyl-benzamide]	9	–
Cc1ccc(C(=O)NC2CC2)cc1-n1ccnc(NCC2(c3ccccc3)CCN(C)CC2)c1=O [Example 35, N-Cyclopropyl-4-methyl-3-[3-[[(1-methyl-4-phenyl-4-piperidinyl)methyl]amino]-2-oxo-1(2H)-pyrazinyl]-benzamide]	–	251
Cc1ccc(C(=O)NC2CC2)cc1-n1ccnc(NCc2ccc(C(C)(C)C)cc2)c1=O [Example 37, N-Cyclopropyl-3-[3-[[[4-(1,1-dimethylethyl)phenyl]methyl]amino]-2-oxo-1(2H)-pyrazinyl]-4-methyl-benzamide]	6.1	–
CONC(=O)c1ccc(C)c(-n2ccnc(N[C@@H](c3cccc4ccccc34)[C@@H](C)CN3CCOCC3)c2=O)c1 [Example 161, N-Methoxy-4-methyl-3-[3-[[(1R,2S)-2-methyl-3-(4-morpholinyl)-1-(1-naphthalenyl)propyl]amino]-2-oxo-1(2H)-pyrazinyl]-benzamide]	9.2	–

Further lines, results first:

pIC50	IC50 [nM]	SMILES
9.6	–	CONC(=O)c1ccc(C)c(-n2ccnc(N[C@@H](c3ccccc3)[C@@H](C)CN3CCCC3)c2=O)c1 [Example 159, N-Methoxy-4-methyl-3-[3-[[(1R,2S)-2-methyl-1-phenyl-3-(1-pyrrolidinyl)propyl]amino]-2-oxo-1(2H)-pyrazinyl]-benzamide]
9.1	–	Cc1ccc(C(=O)NC2CC2)cc1-n1ccnc(NC2(c3ccccc3OCCN3CCn4ccnc4C3)CC2)c1=O [Example 296, N-Cyclopropyl-3-{3-[(1-{2-[2-(5,6-dihydroimidazo[1,2-a]pyrazin-7(8H)-yl)ethoxy]phenyl}cyclopropyl)amino]-2-oxopyrazin-1(2H)-yl}-4-methylbenzamide]
10	–	Cc1ccc(C(=O)NC2CC2)cc1-n1ccnc(NC2(c3ccccc3OCCNC3CCC3)CC2)c1=O [Example 248, 3-[3-[[1-[2-[2-(cyclobutylamino)ethoxy]phenyl]cyclopropyl]amino]-2-oxo-1(2H)-pyrazinyl]-N-Cyclopropyl-4-methyl-benzamide]
7.9	–	Cc1ccc(C(=O)NC2CC2)cc1-n1ccnc(NCc2cccc3c2OCCO3)c1=O [Example 91, N-Cyclopropyl-3-[3-[[(2,3-dihydro-1,4-benzodioxin-5-yl)methyl]amino]-2-oxo-1(2H)-pyrazinyl]-4-methyl-benzamide]
9.1	–	Cc1ccc(C(=O)NC2CC2)cc1-n1ccnc(NC(C)(C)c2ccccc2OCCN2CCCCC2)c1=O [Example 201, N-Cyclopropyl-4-methyl-3-[3-[[1-methyl-1-[2-[2-(1-piperidinyl)ethoxy]phenyl]ethyl]amino]-2-oxo-1(2H)-pyrazinyl]-benzamide]
6	–	Cc1ccc(C(=O)NC2CC2)cc1-n1ccnc(N(CCN(C)C)Cc2ccccc2)c1=O [Example 121, N-Cyclopropyl-3-[3-[[2-(dimethylamino)ethyl](phenylmethyl)amino]-2-oxo-1(2H)-pyrazinyl]-4-methyl-benzamide]
9.4	–	Cc1ccc(C(=O)NC2CC2)cc1-n1ccnc(NC2(c3ccccc3OCCN3CCc4c(ncn4C)C3)CC2)c1=O [Example 297, N-Cyclopropyl-4-methyl-3-{3-[(1-{2-[2-(1-methyl-1,4,6,7-tetrahydro-5H-imidazo[4,5-c]pyridin-5-yl)ethoxy]phenyl}cyclopropyl)amino]-2-oxopyrazin-1(2H)-yl}benzamide]
5.5	–	Cc1ccc(C(=O)NC2CC2)cc1-n1ccnc(NCc2ccc(S(C)(=O)=O)cc2)c1=O [Example 25, N-Cyclopropyl-4-methyl-3-[3-[[[4-(methylsulfonyl)phenyl]methyl]amino]-2-oxo-1(2H)-pyrazinyl]-benzamide]
10.2	–	Cc1c(F)cc(C(=O)NC2CC2)cc1-n1ccnc(NC(C)(C)c2ccccc2OCCNCCO)c1=O [Example 253, N-Cyclopropyl-3-fluoro-5-[3-[[1-[2-[2-[(2-hydroxyethyl)amino]ethoxy]phenyl]-1-methylethyl]amino]-2-oxo-1(2H)-pyrazinyl]-4-methyl-benzamide]
6.9	–	Cc1ccc(C(=O)NC2CC2)cc1-n1ccnc(NCc2cccc(C(F)(F)F)c2)c1=O [Example 93, N-Cyclopropyl-4-methyl-3-[2-oxo-3-[[[3-(trifluoromethyl)phenyl]methyl]amino]-1(2H)-pyrazinyl]-benzamide]
9.5	–	Cc1ccc(C(=O)NC2CC2)cc1-n1ccnc(NC2(c3ccccc3OCCN[C@@H](CO)C(C)C)CC2)c1=O [Example 293, N-Cyclopropyl-3-[3-({1-[2-(2-{[(1R)-1-(hydroxymethyl)-2-methylpropyl]amino}ethoxy)phenyl]cyclopropyl}amino)-2-oxopyrazin-1(2H)-yl]-4-methylbenzamide]
6.4	–	COCCCNc1nccn(-c2cc(C(=O)NC3CC3)ccc2C)c1=O [Example 8, N-Cyclopropyl-3-[3-[(3-methoxypropyl)amino]-2-oxo-1(2H)-pyrazinyl]-4-methyl-benzamide]
8.9	–	Cc1ccc(C(=O)NC2CC2)cc1-n1ccnc(NC(C)(C)c2ccccc2OCCCNCC(F)(F)F)c1=O [Example 207, N-Cyclopropyl-4-methyl-3-[3-[[1-methyl-1-[2-[3-[(2,2,2-trifluoroethyl)amino]propoxy]phenyl]ethyl]amino]-2-oxo-1(2H)-pyrazinyl]-benzamide]
8.7	–	Cc1ccc(C(=O)NC2CC2)cc1-n1ccnc(N[C@@H](c2ccccc2)[C@@H](C)CN2CCC[C@H]2C)c1=O [Example 184, N-Cyclopropyl-4-methyl-3-[3-[[(1R,2S)-2-methyl-3-[(2R)-2-methyl-1-pyrrolidinyl]-1-phenylpropyl]amino]-2-oxo-1(2H)-pyrazinyl]-benzamide]
6.5	–	Cc1ccc(C(=O)NC2CC2)cc1-n1ccnc(NCc2ccc(Oc3ccccc3)cc2)c1=O [Example 45, N-Cyclopropyl-4-methyl-3-[2-oxo-3-[[(4-phenoxyphenyl)methyl]amino]-1(2H)-pyrazinyl]-benzamide]
6.6	–	Cc1ccc(C(=O)NC2CC2)cc1-n1ccnc(N2CCOC(c3ccccc3)C2)c1=O (centres unmarked) [Example 67, N-Cyclopropyl-4-methyl-3-[2-oxo-3-(2-phenyl-4-morpholinyl)-1(2H)-pyrazinyl]-benzamide]
